Data set [1] relates to Bax. Kind of data set: Bax activation assay. The data set is classed as cell-based, human. Particulars: for Bax Conc: A-549; for Bax Fold Change: A-549, vs control untreated cells. On the procedure: 8, and lysed with Cell Extraction Buffer. This lysate was diluted in Standard Diluent Buffer over the range of the assay and measured for human active caspase-8 content. (cells are Plated in a density of 1.2 – 1.8 × 10,000 cells/well in a volume of 100µl complete growth medium + 100 ul of the tested compound per well in a 96-well plate for 24 hours before the enzyme assay for […].). […]
4.2.4. Bax activation assay
Bring all reagents, except the human Bax-α Standard, to room temperature for at least 30 minutes prior to opening. The human Bax-α Standard solution should not be left at room temperature for more than 10 minutes. All standards, controls and samples should be run in duplicate. Refer to the Assay Layout Sheet to determine the number of wells to be used and put any remaining wells with the desiccant back into the pouch and seal the ziploc. Store unused wells at 4 °C. Pipet 100 μL of Assay Buffer into the S0 (0 pg/mL standard) wells. Pipet 100 μL of Standards #1 through #6 into the appropriate wells. Pipet 100 μL of the Samples into the appropriate wells. Tap the plate gently to mix the contents. Seal the plate and incubate at room temperature on a plate shaker for 1 hour at ~500 rpm. Empty the contents of the wells and wash by adding 400 μL of wash solution to every well.
Repeat the wash 4 more times for a total of 5 washes. After the final wash, empty or aspirate the wells and firmly tap the plate on a lint free paper towel to remove any remaining wash buffer. Pipet 100 μL of yellow Antibody into each well, except the Blank. Seal the plate and incubate at room temperature on a plate shaker for 1 hour at ~500 […]
wells and firmly tap the plate on a lint free paper towel to remove any remaining wash buffer. Add […]
100 μL of blue Conjugate to each well, except the Blank. Seal the plate and incubate at room temperature on a plate shaker for 30 minutes at ~500 rpm. Empty the contents of the wells and wash by adding 400 μL of wash solution to every well. Repeat the wash 4 more times for a total of 5 washes. After the final wash, empty or aspirate the wells and firmly tap the plate on a lint free paper towel to remove any remaining wash buffer. Pipet 100 μL of Substrate Solution into each well.
Incubate for 30 minutes at room temperature on a plate shaker at ~500 rpm. Pipet 100 μL Stop Solution to each well. Blank the plate reader against the Blank wells, read the optical density at 450 nm. Calculate the average net Optical Density (OD) bound for each standard and sample by subtracting the average Blank OD from the average OD for each standard and sample. Using linear graph paper, plot the Average Net OD for each standard versus Bax concentration in each standard.
Approximate a straight line through the points. The concentration of Bax in the unknowns can be determined by interpolation. […]

In data set [2] the test system is caspase-9. Kind of data set: Caspase-9 level assay. The data set is classed as cell-based, human. Particulars: for Caspase-9 Fold Change: vs control cells. How it is done:
The impact of compounds 4a and 4b on caspase-8 and caspase-9 was also assessed to clarify how compounds 4a and 4b induce apoptosis by activating the intrinsic or extrinsic route.

Data set [3] can be described thus: Cell viability assay (MTT) on normal cell line. The data set is classed as cell-based, human. The conditions noted are these: human, MCF-10A mammary gland epithelial cells, four days. On the procedure:
A cell viability test was performed using MCF-10A (human mammary gland epithelial) cell line to investigate the effect of 4a–e and 7a–e on normal cell lines. In this investigation, a concentration of 50 µM of the studied compound is employed for four days, after which cell viability is assessed.
4.2. Biological evaluation
4.2.1. Cytotoxic activity using MTT Assay and evaluation of IC50
MTT assay was carried out to study the effect of compounds on mammary epithelial cells (MCF-10A). The medium in which cells were propagated contained Dulbecco's modified Eagle's medium (DMEM)/ Ham's F-12 medium (1:1) supplemented with epidermal growth factor (20 ng/mL), hydrocortisone (500 ng/mL), insulin (10 μg/mL), 2 mM glutamine and 10% foetal calf serum. After every 2-3 days, the cells were passaged using trypsin ethylenediamine tetra acetic acid (EDTA). The cells were seeded at a density of 10^4 cells mL-1 in flat-bottomed culture plates containing 96 wells each. After 24 h, medium was removed from the plates and the compounds in (in 0.1% DMSO) were added (in 200 μL medium to yield a final concentration of 0.1% v/v) to the wells of plates. A single compound was designated with four wells followed by incubation of plates for 96h at 37°C. After incubation, medium was removed completely from the plates followed by addition of MTT (0.4 mg/mL in medium) to each well and subsequent incubation of plates for 3h. MTT (along with the medium) was removed and DMSO (150μL) was added to each well of the culture plates, followed by vortexing and subsequent measurement of absorbance (at 540 nm) using microplate reader. […]

For data set [4], the target named is EGFR (Homo sapiens, UniProt P00533). Kind of data set: EGFR inhibitory assay (EGFR-TK, DELFIA/time-resolved fluorometry).
Description: EGFR-TK assay was performed to evaluate the inhibitory potency of novel compounds against
EGFR. Baculoviral expression vectors including pBlueBacHis2B and pFASTBacHTc were used
5ʹ upstream to the EGFR sequence comprised a sequence that encoded (His)6. Sf-9 cells were infected for 72h for protein expression. The pellets of Sf-9 cells were solubilized in a buffer containing sodium vanadate (100 µM), aprotinin (10 µg/mL), triton (1%), HEPES buffer (50mM), ammonium molybdate (10 µM), benzamidine HCl (16 µg/mL), NaCl (10 mM), leupeptin (10 µg/mL) and pepstatin (10 µg/mL) at 0°C for 20 min at pH 7.4, followed by centrifugation for 20 min.
To eliminate the non-specifically bound material, a Ni-NTA super flow packed column was used to pass through and wash the crude extract supernatant first with 10 mM and then with 100 mM imidazole. Histidine-linked proteins were first eluted with 250 and then with 500 mM imidazole after (1 picture or pasted object on this page, not shown here)
dialysis against NaCl (50 mM), HEPES (20 mM), glycerol (10%) and 1 µg/mL each of aprotinin, leupeptin and pepstatin for 120 min. The purification was performed either at 4 °C or on ice. To
record autophosphorylation level, EGFR kinase assay was carried out based on DELFIA/Time-
Resolved Fluorometry. The compounds were first dissolved in DMSO absolute, after dilution to
Each compound (10 µL) was incubated
with recombinant enzyme (10 µL, 5 ng for EGFR, 1:80 dilution in 100 mM HEPES) for 10 min at
25 °C, after the addition of 5X buffer (10 µL, containing 2 mM MnCl2, 100 µM Na3VO4, 20 mM HEPES and 1 mM DTT) and ATP-MgCl2 (20 µL, containing 0.1 mM ATP and 50 mM MgCl2) and
incubation for 1h. The negative and positive controls were included in each plate by the incubation
of enzyme either with or without ATP-MgCl2. The liquid was removed after incubation and the plates
were washed thrice using wash buffer. Europium-tagged antiphosphotyrosine antibody (75 µL, 400
ng) was added to each well followed by incubation of 1h and then washing of the plates using buffer.
The enhancement solution was added to each well and the signal was recorded at excitation and
The autophosphorylation percentage inhibition by compounds was calculated using the following equation:

SMILES strings stand for the structures. Values joined by “and” are separate entries in the source; they are usually repeats but may differ in a detail not shown here. Equal entries are not always repeated.

These results are taken from PMC9788418, “Design, Synthesis and Biological Evaluation of Syn and Anti-like Double Warhead Quinolinones Bearing Dihydroxy Naphthalene Moiety as Epidermal Growth Factor Receptor Inhibitors with Potential Apoptotic Antiproliferative Action” (Molecules, 2022).

EGFR, sequence (P00533 669-1210): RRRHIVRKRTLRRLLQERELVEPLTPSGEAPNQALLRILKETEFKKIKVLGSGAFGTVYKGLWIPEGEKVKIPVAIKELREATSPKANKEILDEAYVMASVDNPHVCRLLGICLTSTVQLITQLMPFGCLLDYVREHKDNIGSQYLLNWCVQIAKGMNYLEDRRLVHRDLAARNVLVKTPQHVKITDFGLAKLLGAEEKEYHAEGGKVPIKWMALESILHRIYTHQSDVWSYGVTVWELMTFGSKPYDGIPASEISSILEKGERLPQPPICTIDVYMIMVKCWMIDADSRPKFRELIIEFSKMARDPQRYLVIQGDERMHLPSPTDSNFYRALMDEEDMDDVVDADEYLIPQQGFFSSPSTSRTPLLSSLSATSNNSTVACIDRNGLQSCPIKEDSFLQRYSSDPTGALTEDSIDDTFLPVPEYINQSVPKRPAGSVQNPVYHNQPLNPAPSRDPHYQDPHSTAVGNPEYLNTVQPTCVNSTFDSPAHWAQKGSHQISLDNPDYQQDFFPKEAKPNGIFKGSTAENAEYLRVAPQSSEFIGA

For orientation: viability means the share of living cells, or the viability signal relative to a control. In general, IC50 refers to the concentration at which inhibition is half-maximal. The low end stands for greater potency, the high end for weaker potency. As for `O=c1cc(-n2cc(COc3cccc4cccc(OCc5cn(-c6cc(=O)[nH]c7ccccc67)nn5)c34)nn2)c2ccccc2[nH]1` [Compound 4a, 4,4′-(((naphthalene-1,8-diylbis(oxy))bis(methylene))bis(1H-1,2,3-triazole-4,1-diyl))-bis-(quinolin-2(1H)-one)], in data set [1], the “Bax Conc” value was 298 pg/mL and 298.60 pg/mL; the “Bax Fold Change” value turned out to be 36. In data set [2], the “Caspase-9 Conc” value was determined as 17.80 ng/mL; the “Caspase-9 Fold Change” value was 19 and 18.75. Besides, the viability at 96 h, 50 µM in data set [3] turned out to be 91%. The molecule also had a 50% inhibitory concentration (IC50) in data set [4] of 64 ± 6 nM.

On to `Cc1ccc2[nH]c(=O)cc(-n3cc(COc4cccc5cccc(OCc6cn(-c7cc(=O)[nH]c8ccc(C)cc78)nn6)c45)nn3)c2c1` [Compound 4b, 4,4′-(((naphthalene-1,8-diylbis(oxy))bis(methylene))bis(1H-1,2,3-triazole-4,1-diyl))-bis(6-methylquinolin-2(1H)-one)], for which, in data set [1], the “Bax Conc” value was 284 pg/mL and 284.50 pg/mL; the “Bax Fold Change” value worked out at 34. Further, in data set [2], the “Caspase-9 Conc” value amounted to 16.60 ng/mL; the “Caspase-9 Fold Change” value was 18 and 17.50. The molecule further gave a viability at 96 h, 50 µM in data set [3] of 89%. Also, half-maximal inhibition in data set [4] (IC50) required 93 ± 9 nM. In addition, in data set [4] (relative to erlotinib), the “fold less effective than erlotinib (EGFR IC50)” value is reported as “roughly 1.3 fold”.
